Measured values reported in patent US6759431B2, “Compositions and methods for treating or preventing diseases of body passageways” (Angiotech Pharmaceuticals, Inc., priority 1996, dated 2004).
“And” between values parts separate entries of the source, which are not always exact repeats. Equal values may be shown once. Read-outs that look alike come from different tables or passages of the source.

Columns and labels:
[1] = Solubility of vanadium complexes in PBS/ALB; format: physicochemical; conditions: 10 mM PBS with albumin, pH 7.4
Description: Quantitative analysis (UV/VIS spectrophometric analysis) was done with different concentrations of vanadium solutions to obtain the wavelengths of peak absorbance and the calibration equations. Solubility of vanadium was studies in 10 mM phosphate buffered saline with albumin (PBS/ALB) (pH 7.4). 1%, 5%, 10%, and 20% (% vanadium complex in PCL) of each organic complex form of vanadium were encapsulated in a biodegradable polymer PCL and/or in blends of PLC with MePEG (MW 350) to produce a polymeric drug delivery product called a “thermopaste”. In vitro release studies of the various forms of vanadium from thermopastes were carried out at 37° C. in PBS/ALB with vanadium release measured by UV/VIS absorbance spectroscopy.

MDAY-D2 tumor = experiment: BMOV microspheres, tumor growth in mice; format: in vivo; conditions: s.c.
Description: (§1) Twenty of twenty-four mice were injected subcutaneously with […] of MDAY-D2 cells with density of 10×10^6/ml. On day 6 the mice were divided into 6 groups. Group 1, empty control, group 2, tumor control, group 3, were injected subcutaneously with 0.25 mg/100 ul BMOV, twice a day. Group 4 was injected IP with 20 mg PLLA microspheres containing 5 mg of BMOV. Group 5 was injected IP with 10 mg of BMOV microspheres on day 6 and day 9 respectively. Group 6 was injected intramuscularly with 10 mg of BMOV microspheres on day 6 and day 9. On day 16, the mice were sacrificed and tumors were dissected.

[2] = tested on: HT-29 colon, MCF-7 breast and SKMES1 non-small cell lung human tumor cell lines; experiment: Radiometric (Bactec) cytotoxicity, tumor cell lines; format: cell-based; conditions: continuous exposure
Description: A. Human Tumor Cell Lines The HT-29 colon, MCF-7 breast and SKMES1 non-small cell lung human tumor cell lines were obtained from the American Type Culture Collection. The HT-29 colon cell line was cultured in RPMI 1640 with 10% heat inactivated fetal bovine serum (HIFBS), the MCF-7 breast cell line in Iscove's modified Eagles medium with 5% HIFBS plus 10^-9 M insulin, and the SKMES1 lung cell line in Eagle's minimal essential medium with 10% non-heat inactivated FBS.
(§2) The Bactec system (Johnston Laboratories, Towson, Md.) is based on a clinical instrument which was developed to detect bacteria in blood cultures and has been used to screen for new antineoplastic agents. This radiometric system is a rapid, semiautomated system which utilizes the inhibition of the conversion of ^14C glucose to […] as an index of cytotoxicity. The Bactec machine automatically flushes out the ^14CO2 into an ion chamber where the signal of the radiolabelled CO2 is changed into a proportional electrical signal or growth index value on a scale of 1 to 1000. […] The growth index values of BMOV treated cells were compared to the growth index values of non-treated cells and the % survival compared to untreated controls was calculated.

[3] = tested on: normal human bone marrow cells; experiment: Radiometric (Bactec) cytotoxicity, marrow cells; format: cell-based
Description: Normal human bone marrow (histologically negative for tumor cells) was obtained from patients who were to have bone marrow transplants for their solid tumors but died before the marrow was used. After centrifugation, the buffy coat was removed and cells were treated with lysis buffer and washed twice with and then resuspended in RPMI 1640 with 20% HIFBS. The cells were drawn through a 25 g needle and counted.
as §2

[4] = Body weights of mice, BMOV microsphere study; format: in vivo; conditions: 0.25 mg × 1, subcutaneous, in g (unit assumed)
Description: as §1

CAM = format: in vivo, chick; conditions: for drug loading that was toxic to the embryo: chick, in vivo
Description: Vinca alkaloids (vinblastine and vincristine) were ground with a pestle and mortar to reduce the particle size to below 5 microns. They were then mixed as a dry powder with polycaprolactone (molecular wt. 18000 Birmingham Polymers, AL USA). The mixture is heated to 65° C. for 5 minutes and the molten polymer/agent mixture is stirred into a smooth paste for 5 minutes. The molten paste is then taken into a 1 ml syringe and extruded to form 3 mg pellets. These pellets were then tested in the CAM assay.

[5] = Solubility of paclitaxel in cyclodextrin solutions; format: physicochemical; conditions: 50% HPβCD in water, 37° C.
Description: Excess amounts of paclitaxel (5 mg) were added to aqueous solutions containing various concentrations of γ-CD, HPγ-CD, or HPβ-CD and tumbled gently for about 24 hours at 37° C. After equilibration, aliquots of the suspension were filtered through a 0.45 μm membrane filter (Millipore), suitably diluted and analyzed using HPLC. The mobile phase was composed of a mixture of acetonitrile, methanol and water (58:5:37) at a flow rate of 1.0 ml min^−1.

[6] = Release from 50:50 ELVAX:poly-l-lactic acid microspheres, tumbling at 37° C.; format: physicochemical; conditions: 18 hours tumbling at 37° C.
Description: Five hundred micrograms of either paclitaxel or baccatin (a paclitaxel analog, available from Inflazyme Pharmaceuticals Inc., Vancouver, British Columbia, Canada) are dissolved in 1 ml of a 50:50 ELVAX:poly-1-lactic acid mixture in dcm. Microspheres are then prepared in a dissolution machine (Six-spindle dissolution tester, VanderKanp, Van Kell Industries Inc., U.S.A.) in triplicate at 200 rpm, 42° C., for 3 hours. Microspheres so prepared are washed twice in water and sized on the microscope.
Determination of paclitaxel encapsulation is undertaken in a uv/vis assay (uv/vis lambda max. at 237 nm, fluorescence assay at excitation 237, emission at 325 nm; Fluorescence results are presented in square brackets [ ]).

[7] = Stability of paclitaxel in cyclodextrin solutions; format: physicochemical
Description: The solutions containing 20% HPβCD or HPγCD had pH values of 3.9 and 5.2, respectively. The stability of paclitaxel in cyclodextrin solutions was investigated by assaying paclitaxel in solutions (20 μg ml^−1) containing 10 or 20% HPγ-CD or HPβ-CD in either water or a 50:50 water-ethanol mixture at 37° C. or 55° C. at various time intervals. In addition, stability of paclitaxel in solutions (1 μg/ml) containing 1%, 2% or 5% HPβCD at 55° C. were determined.

[8] = Complexation of paclitaxel with cyclodextrins (stability constants); format: physicochemical; conditions: for estimated stability constants for first order complexes of paclitaxel-cyclodextrins / stability constants for second order complexes of paclitaxel-cyclodextrins: water, 37° C.
Description: Excess amounts of paclitaxel (5 mg) were added to aqueous solutions containing various concentrations of γ-CD, HPγ-CD, or HPβ-CD and tumbled gently for about 24 hours at 37° C. After equilibration, aliquots of the suspension were filtered through a 0.45 μm membrane filter (Millipore), suitably diluted and analyzed using HPLC. […] Aliquots were taken at various time intervals and assayed for paclitaxel.

[9] = fluorescence assay (square brackets)

## Cc1occc(=O)c1[O-].Cc1occc(=O)c1[O-].[O]=[V+2] [BMOV, Bis[maltolato(oxovanadium)] (IV)]]
[1]
  rate and extent of solubility, order: V5>BMOV & BEMOV>PRC-V
MDAY-D2 tumor
  Tumor weight, Average: 0.15
MDAY-D2 tumor; listed as BMOV solution
  Tumor weight, individual mice: 0.04 and 0.4 and 0.12 and 0.07
[2]
  antineoplastic effect in vitro: antineoplastic effect of BMOV have been shown in vitro
[3]; continuous exposure, 50 μM
  survival compared to untreated controls: 49%
[3]; one hour exposure, up to 50 μM
  effect on cells: very little effect
[4]
  Body weights, Average: 17.87
[4]; listed as BMOV Solution
  Body weights, individual mice: 18.4 and 17.3 and 18 and 17.8

## CC[C@]1(O)C[C@@H]2CN(CCc3c([nH]c4ccccc34)[C@@](C(=O)OC)(c3cc4c(cc3OC)N(C)[C@H]3[C@@](O)(C(=O)OC)[C@H](OC(C)=O)[C@]5(CC)C=CCN6CC[C@]43[C@@H]65)C2)C1 [Vinblastine, vinblastine]
CAM; 0.25%, 0.5% and 1% in PCL pellets
  angiogenesis inhibition on the CAM: effective in inhibiting angiogenesis
CAM
  drug loading that was toxic to the embryo: exceeding 2%

## CC(=O)O[C@H]1C(=O)[C@@]2(C)[C@H]([C@H](OC(=O)c3ccccc3)[C@]3(O)C[C@H](OC(=O)[C@H](O)[C@@H](NC(=O)c4ccccc4)c4ccccc4)C(C)=C1C3(C)C)[C@]1(OC(C)=O)CO[C@@H]1C[C@@H]2O [paclitaxel]
[5]
  fold increase over the solubility of paclitaxel in water: ~2000 fold
[6]; [9]
  percent of total released from the microspheres: 6%
[6]; uv/vis assay
  percent of total released from the microspheres: 10.3%
[7]; 1 μg/ml paclitaxel, 1% HPβCD, 55° C.
  degradation rate constant k (pseudo-first order): 0.00338 h⁻¹
[7]; 10% HPβCD (FIG. 47 legend: 20 μg ml^−1, 37° C.)
  degradation rate constant: 0.00178 h⁻¹
[7]; 10% HPγCD (FIG. 47 legend: 20 μg ml^−1, 37° C.)
  degradation rate constant: 0.00096 h⁻¹

## CC[C@]1(O)C[C@H]2CN(CCc3c([nH]c4ccccc34)[C@@](C(=O)OC)(c3cc4c(cc3OC)N(C=O)[C@H]3[C@@](O)(C(=O)OC)[C@H](OC(C)=O)[C@]5(CC)C=CCN6CC[C@]43[C@@H]65)C2)C1 [vincristine]
CAM; 0.5% and 0.1% drug loading in PCL pellets
  angiogenesis inhibition on the CAM: all of the CAMs tested
CAM
  drug loading that was toxic to the embryo: exceeding 2%

## OC[C@H]1O[C@@H]2O[C@H]3[C@H](O)[C@@H](O)[C@@H](O[C@H]4[C@H](O)[C@@H](O)[C@@H](O[C@H]5[C@H](O)[C@@H](O)[C@@H](O[C@H]6[C@H](O)[C@@H](O)[C@@H](O[C@H]7[C@H](O)[C@@H](O)[C@@H](O[C@H]8[C@H](O)[C@@H](O)[C@@H](O[C@H]9[C@H](O)[C@@H](O)[C@@H](O[C@H]1[C@H](O)[C@H]2O)O[C@@H]9CO)O[C@@H]8CO)O[C@@H]7CO)O[C@@H]6CO)O[C@@H]5CO)O[C@@H]4CO)O[C@@H]3CO [γ-CD, γ-cyclodextrin]
[8]
  estimated stability constants for first order complexes of paclitaxel-cyclodextrins: 3.1 M⁻¹
  stability constants for second order complexes of paclitaxel-cyclodextrins: 785 M⁻¹

## Hydroxypropyl-β-cyclodextrin [HPβCD]
[8]; 50% ethanol
  times lower than the stability constant in the absence of ethanol: about 300 times
[8]; in the presence of 50% ethanol
  apparent stability constant for the complexation with paclitaxel: 26.57 M⁻¹
[8]
  estimated stability constants for first order complexes of paclitaxel-cyclodextrins: 7.2 M⁻¹
  stability constants for second order complexes of paclitaxel-cyclodextrins: 7965 M⁻¹

## baccatin
[6]; [9]
  percent of total released from the microspheres: 60%
[6]; uv/vis assay
  percent of total released from the microspheres: 55%

## hydroxypropyl-γ-cyclodextrin [HPγCD]
[8]
  estimated stability constants for first order complexes of paclitaxel-cyclodextrins: 5.8 M⁻¹
  stability constants for second order complexes of paclitaxel-cyclodextrins: 1886 M⁻¹
